In general, Ki refers to a dissociation constant, usually derived from enzyme kinetics or from competition with a known ligand.

One experiment concerns the target T1, recombinant HIV-1 protease (Human immunodeficiency virus type 1 group M subtype B, UniProt P04585).
T1 construct: recombinant HIV-1 protease (final concentration 2.18 nM) purchased from Bachem Bioscience; purchased Bachem Bioscience
The experiment in a line: Enzymatic fluorometric (FRET) assay for determining the inhibition constant (Ki) against HIV protease. It counts as biochemical. The following applies: Ki (nM). From the text: An Enzymatic assay for determining the inhibition constant (Ki) of synthetic compounds targeting the HIV protease may be carried out as follows: This is a fluorometric assay based on the cleavage by protease of a substrate carrying a donor group (EDANS) and an acceptor group (DABCYL) on each side of the cleavage site, interacting together through fluorescence resonance energy transfer (FRET). Cleavage of the substrate by protease stops energy exchange between the two groups, resulting in a time-dependent increase in fluorescence intensity that is linearly related to the extent of substrate hydrolysis.
The enzymatic assay is done at 31° C. in white 96-well fluorescence microplates, in a total volume of 200 μL per well. The apparatus used for analysis is a FL600 fluorescence microplate reader (Biotek Instruments). […] Excitation of the fluorophore is done at 340 nm and emission at 485 nm is recorded continuously during the reaction, allowing determination of the enzyme's initial velocity (v0). At the end of the 4 min incubation, the potential inhibitor at a defined concentration in a volume of 4 μL is added to the reaction, and fluorescence readings are taken for another 4 min, allowing determination of enzyme velocity (vi) in the presence of the inhibitory compound. Several concentrations of the putative inhibitors are tested in the assay. After calculation of v0 and vi, the inhibition constant (Ki) of the compound is determined using the equation of Henderson: [formula]
and [I]=inhibitor concentration, [S]=substrate concentration,
Km=Michaelis-Menten constant, Kiapp=apparent Ki
Graphs are traced and the Ki determined using GraphPad Prism software v. 3.0.
As to `CC(C)CN([C@@H](CCCCNC(=O)OCC1c2ccccc2-c2ccccc21)C(=O)O)S(=O)(=O)c1ccc(C(C)(C)C)cc1` [Compound 10, Nα-Isobutyl-Nα-(4-tert-butylbenzenesulfonyl)-Nε-(9-fluorenylmethoxycarbonyl)-L-lysine], the Ki was determined as 257 nM.

Take `O=C(NCCCC[C@H](NC(=O)OCC1c2ccccc2-c2ccccc21)C(=O)O)OCC1c2ccccc2-c2ccccc21` [Compound 71, Nα,Nε-di-(9-Fluorenylmethoxycarbonyl)-L-lysine]: the Ki stood at 44800 nM.

The same experiment, now with this note: Ki (nM), fluorometric FRET assay, recombinant HIV-1 protease, pH 4.7, 31° C.
`CC(C)CN([C@@H](CCCCNC(=O)C=Cc1ccccc1[N+](=O)[O-])C(=O)O)S(=O)(=O)c1ccc([N+](=O)[O-])cc1` [Compound 109, Nα-Isobutyl-Nα-(4-nitrobenzenesulfonyl)-Nε-(2-nitrocinnamoyl)-L-lysine]: the inhibition constant Ki is above 300 nM.

The experiment is the same for the next values; noted with them: fluorometric FRET assay, 31° C., pH 4.7, recombinant HIV-1 protease 2.18 nM, substrate 10 μM; read-out: Ki.
For `COc1ccc(C=CC(=O)NCCCC[C@@H](C(=O)O)N(CC(C)C)S(=O)(=O)c2ccc([N+](=O)[O-])cc2)cc1OC` [Compound 193, Nα-Isobutyl-Nα-(4-nitrobenzenesulfonyl)-Nε-(3,4-dimethoxycinnamoyl)-L-lysine], the Ki was above 75 nM.

Staying with this experiment, now noted: fluorometric FRET assay, recombinant HIV-1 protease, pH 4.7, 31° C.; read-out: Ki.
`Cc1cc(C)c(S(=O)(=O)NCCCC[C@H](NC(=O)OCC2c3ccccc3-c3ccccc32)C(=O)O)c(C)c1` [Compound 27, Nε-(2,4,6-Trimethylbenzenesulfonyl)-Nα-(9-fluorenylmethoxycarbonyl)-L-lysine]: the Ki was above 50000 nM.

For `O=C(N[C@@H](CCCCNS(=O)(=O)c1ccccc1)C(=O)O)OCC1c2ccccc2-c2ccccc21` [Compound 49, Nε-Benzenesulfonyl-Nα-(9-fluorenylmethoxycarbonyl)-L-lysine], the inhibitory constant (Ki) was found to be 8900 nM.

With `O=C(N[C@@H](CCCCNS(=O)(=O)c1ccc(Br)cc1)C(=O)O)C(c1ccccc1)c1ccccc1` [Compound 36, Nα-(Diphenylacetyl)-Nε-(4-bromobenzenesulfonyl)-L-lysine], the inhibition constant Ki turned out to be 24000 nM.

On to “Nα-Isobutyl-Nα-(4-iodobenzenesulfonyl)-Nε-benzyloxycarbonyl-DL-lysine [Compound 48]”, for which the Ki was above 100 nM.

Regarding “Nα-Isobutyl-Nα-(4-aminobenzenesulfonyl)-Nε-(4-methoxydihydrocinnamoyl)-L-lysine [Compound 120]”, the Ki is 21.7 nM.

As for `COc1cc(C=CC(=O)NCCCC[C@@H](C(=O)O)N(CC(C)C)S(=O)(=O)c2ccc([N+](=O)[O-])cc2)cc(OC)c1` [Compound 189, Nα-Isobutyl-Nα-(4-nitrobenzenesulfonyl)-Nε-(3,5-dimethoxycinnamoyl)-L-lysine], the Ki is 108 nM.

As to `Nc1ccc(S(=O)(=O)N[C@@H](CCCCNC(=O)OCC2c3ccccc3-c3ccccc32)C(=O)O)cc1` [Compound 106, Nα-(4-Aminobenzenesulfonyl)-Nε-(9-fluorenylmethoxycarbonyl)-L-lysine], the Ki stood at 4490 nM.

On to `CC(C)CN(C(CCCCNC(=O)OCC1c2ccccc2-c2ccccc21)C(=O)O)S(=O)(=O)c1ccc(Cl)cc1` (racemic) [Compound 1, Nα-Isobutyl-Nα-(4-chlorobenzenesulfonyl)-Nε-(9-fluorenylmethoxycarbonyl)-DL-lysine], for which the inhibitory constant (Ki) is 20.5 nM.

For `Nc1ccc(S(=O)(=O)NCCCC[C@H](NC(=O)OCC2c3ccccc3-c3ccccc32)C(=O)O)cc1` [Compound 52, Nε-(4-Aminobenzenesulfonyl)-Nα-(9-fluorenylmethoxycarbonyl)-L-lysine], the Ki stood at 6800 nM.

For the compound `O=C(N[C@@H](CCCCNS(=O)(=O)c1cc(Cl)ccc1Cl)C(=O)O)OCC1c2ccccc2-c2ccccc21` [Compound 54, Nε-(2,5-Dichlorobenzenesulfonyl)-Nα-(9-fluorenylmethoxycarbonyl)-L-lysine], the Ki was above 6250 nM.

With “Nα-Isobutyl-Nα-(4-aminobenzenesulfonyl)-Nε-(3,4-methylenedioxydihydrocinnamoyl)-L-lysine [Compound 155]”, the Ki was above 300 nM.

For the compound `Cc1ccc(S(=O)(=O)N(CC(C)C)C(CCCCNC(=O)OCC2c3ccccc3-c3ccccc32)C(=O)NO)cc1` [Compound 141, (2R,2S)-N-Isobutyl-N-(4-methylbenzenesulfonylamino)-6-(9-fluorenylmethoxycarboxylamino)-1-hydroxylhexamide], the inhibition constant (Ki) came out at 245 nM.

Turning to “Nα-(9-fluorenylmethoxycarbonyl)-L-lysyl-Nα-(9-fluorenylmethoxycarbonyl)-Nε-(2,4,6-trimethylbenzenesulfonyl)-L-lysine [Compound 26]”, the inhibition constant (Ki) was determined as 63000 nM.

Turning to `Nc1ccc(S(=O)(=O)NCCC[C@H](NC(=O)OCC2c3ccccc3-c3ccccc32)C(=O)O)cc1` [Compound 69, Nδ-(4-Aminobenzenesulfonyl)-Nα-(9-fluorenylmethoxycarbonyl)-L-ornithine], the Ki came out at 23800 nM.

As for `O=C(NCCCC[C@H](NS(=O)(=O)c1cccc2ccccc12)C(=O)O)OCC1c2ccccc2-c2ccccc21` [Compound 102, Nα-(1-Naphthalenesulfonyl)-Nε-(9-fluorenylmethoxycarbonyl)-L-lysine], the Ki came out at 2320 nM.

Regarding `Cc1ccc(S(=O)(=O)N(CC(C)C)[C@@H](CCCCNC(=O)C(c2ccccc2)c2ccccc2)C(=O)O)cc1` [Compound 86], the Ki is 171 nM.

Consider `O=C(N[C@@H](CCNS(=O)(=O)c1ccc(Br)cc1)C(=O)O)OCC1c2ccccc2-c2ccccc21` [Compound 14, (S)-2-(9-Fluorenylmethoxycarbonylamino)-4-(4-bromobenzenesulfonylamino)-butanoic Acid], for which the Ki stood at 49000 nM.

As for `Cc1ccc(S(=O)(=O)N(CC(C)C)C(CCCCNC(=O)OCC2c3ccccc3-c3ccccc32)C(N)=O)cc1` [Compound 125, (2R,2S)-N-Isobutyl-N-(4-methylbenzenesulfonylamino)-6-(9-fluorenylmethoxycarboxylamino)-1-hexanamide], the Ki was determined as 107 nM.

Consider `CC(C)CN([C@@H](CCCCNC(=O)CCc1ccccc1)C(=O)O)S(=O)(=O)c1ccc(N)cc1` [Compound 158, Nα-Isobutyl-Nα-(4-aminobenzenesulfonyl)-Nε-dihydrocinnamoyl-L-lysine], for which the Ki was above 300 nM.

For “Nα-Isobutyl-Nα-(4-nitrobenzenesulfonyl)-Nε-phenylthioacetyl-L-lysine [Compound 154]”, the Ki turned out to be 10.2 nM.

Consider `O=C(N[C@@H](CNS(=O)(=O)c1ccc(Br)cc1)C(=O)O)OCC1c2ccccc2-c2ccccc21` [Compound 18, (S)-2-(9-Fluorenylmethoxycarbonylamino)-3-(4-bromobenzenesulfonylamino)-propanoic Acid], for which the Ki is 75000 nM.

With `COc1cccc(C=CC(=O)NCCCC[C@@H](C(=O)O)N(CC(C)C)S(=O)(=O)c2ccc([N+](=O)[O-])cc2)c1` [Compound 162, Nα-Isobutyl-Nα-(4-nitrobenzenesulfonyl)-Nε-(3-methoxycinnamoyl)-L-lysine], the Ki is above 300 nM.

As for `Cc1ccc(S(=O)(=O)N(CC(C)C)[C@@H](CCCCNC(=O)c2c[nH]c3ccccc23)C(=O)O)cc1` [Compound 87], the Ki is above 1250 nM.

As to “Nα-(4-Bromobenzenesulfonyl)-Nε-(9-fluorenylmethoxycarbonyl)-L-lysine [Compound 66]”, the Ki is above 6500 nM.

`O=C(NCCCC[C@H](NS(=O)(=O)c1ccc(Cl)cc1)C(=O)O)OCC1c2ccccc2-c2ccccc21` [Compound 72, Nα-(4-Chlorobenzenesulfonyl)-Nε-(9-fluorenylmethoxycarbonyl)-L-lysine]: the Ki turned out to be 2380 nM.

For `CC(C)CN([C@@H](CCCCNC(=O)C=Cc1ccc2c(c1)OCO2)C(=O)O)S(=O)(=O)c1ccc([N+](=O)[O-])cc1` [Compound 163, Nα-Isobutyl-Nα-(4-nitrobenzenesulfonyl)-Nε-(3,4-methylenedioxycinnamoyl)-L-lysine], the Ki is above 300 nM.

On to `COc1ccc(S(=O)(=O)N[C@@H](CCCCNC(=O)OCC2c3ccccc3-c3ccccc32)C(=O)O)cc1` [Compound 104, Nα-(4-Methoxylbenzenesulfonyl)-Nε-(9-fluorenylmethoxycarbonyl)-L-lysine], for which the Ki came to 3160 nM.

`O=C(NCCCC[C@H](NS(=O)(=O)c1ccccc1[N+](=O)[O-])C(=O)O)OCC1c2ccccc2-c2ccccc21` [Compound 107, Nα-(2-Nitrobenzenesulfonyl)-Nε-(9-fluorenylmethoxycarbonyl)-L-lysine]: the inhibition constant (Ki) turned out to be 3970 nM.

Turning to `Cc1ccc(S(=O)(=O)N(Cc2ccccc2)[C@@H](CCCCNC(=O)OCC2c3ccccc3-c3ccccc32)C(=O)O)cc1` [Compound 40, Nα-Benzyl-Nα-(4-methylbenzenesulfonyl)-Nε-(9-fluorenylmethoxycarbonyl)-L-lysine], the Ki was determined as 19.6 nM.

Take `CC(C)CN(C(CCCCNC(=O)OCc1ccccc1)C(=O)OCc1ccccc1)S(=O)(=O)C=Cc1ccccc1` (centres unmarked) [Compound 76]: the Ki is above 1250 nM.

For `O=C(N[C@@H](CCCCNS(=O)(=O)c1ccc(Br)cc1)C(=O)O)OCC1c2ccccc2-c2ccccc21` [Compound 16, Nε-(4-Bromobenzenesulfonyl)-Nα-(9-fluorenylmethoxycarbonyl)-L-lysine], the Ki amounted to 13000 nM.
